# Laboratory results taken from ChEMBL document CHEMBL1121922, “Synthesis and pharmacological evaluation of a series of analogues of 1-methylisoguanosine” (1981).
# Activity calls are given as the source filed them. No cut-off for these calls is given here.
# What was measured:
# Mus musculus [1] = species: Mus musculus; assay: Effective peroral dose hypothermic activity in mice; format: functional; details: po
# Mus musculus [2] = species: Mus musculus; assay: Effective peroral dose for muscle relaxation in mice; format: functional; details: po
# Rattus norvegicus [3] = assay: Cardiovascular response in conscious hypertensive rats after administration of compound expressed as percent reduction in heart rate; NA= No activity; format: functional, organism-based
# Rattus norvegicus [4] = assay: Antiinflammatory activity of 100mg/Kg, po compound was assessed by inhibition of carrageenan-induced edema in rats; NA= No activity; format: functional, organism-based
# Rattus norvegicus [5] = assay: Cardiovascular response in conscious hypertensive rats after administration of compound expressed as percent reduction in blood pressure; format: functional
# Rattus norvegicus [6] = assay: Antiallergic activity of 10 mg/kg intravenous dose of compound was assessed by the inhibition of passive paw anaphylaxis in rats; NA= No activity; format: functional, organism-based; parameters: dose 10 mg/kg; details: at 10 mg/kg
# Rattus norvegicus [7] = assay: Antiallergic activity of compound (10 mg/kg, iv) was assessed by the inhibition of passive paw anaphylaxis in rats; format: functional
# Rattus norvegicus [8] = assay: Cardiovascular response in conscious hypertensive rats after administration of compound expressed as percent reduction in heart rate; format: functional
# Rattus norvegicus [9] = assay: Antiinflammatory activity of compound (50 mg/kg) was assessed by inhibition of carrageenan-induced edema in rats; format: functional
# Rattus norvegicus [10] = assay: Cardiovascular response in conscious hypertensive rats after administration of compound expressed as percent reduction in blood pressure; NA= No activity; format: functional, organism-based
# Rattus norvegicus [11] = assay: Antiallergic activity of compound (10 mg/kg, iv) was assessed by the inhibition of passive paw anaphylaxis in rats; NA= No activity; format: functional, organism-based
# Rattus norvegicus [12] = assay: Antiinflammatory activity of compound (100 mg/kg) was assessed by inhibition of carrageenan-induced edema in rats; NA= No activity; format: functional, organism-based
# Rattus norvegicus [13] = assay: Antiinflammatory activity of compound (20 mg/kg) was assessed by inhibition of carrageenan-induced edema in rats; format: functional
# Mus musculus [14] = species: Mus musculus; assay: Effective peroral dose for muscle relaxation in mice; 8.6-27.1; format: functional; details: po
# Mus musculus [15] = species: Mus musculus; assay: Effective peroral dose hypothermic activity in mice; 7.5-20.7; format: functional; details: po
# Mus musculus [16] = species: Mus musculus; assay: Effective peroral dose for muscle relaxation in mice; 9.9-39.2; format: functional; details: po
# Mus musculus [17] = species: Mus musculus; assay: Effective peroral dose hypothermic activity in mice; 2.2-71.9; format: functional; details: po
# Rattus norvegicus [18] = assay: Antiinflammatory activity of compound (25 mg/kg) was assessed by inhibition of carrageenan-induced edema in rats; format: functional
# Mus musculus [19] = species: Mus musculus; assay: Effective peroral dose hypothermic activity in mice; 16.6-26.9; format: functional; details: po
# Mus musculus [20] = species: Mus musculus; assay: Effective peroral dose for muscle relaxation in mice; 24.7-35.2; format: functional; details: po
# Rattus norvegicus [21] = assay: Antiinflammatory activity of 25mg/Kg, po compound was assessed by inhibition of carrageenan-induced edema in rats; NA= No activity; format: functional, organism-based
# Rattus norvegicus [22] = assay: Antiallergic activity of 10 mg/kg intravenous dose of compound was assessed by the inhibition of passive paw anaphylaxis in rats; format: functional
# Rattus norvegicus [23] = assay: Antiinflammatory activity of 50mg/Kg, po compound was assessed by inhibition of carrageenan-induced edema in rats; no activity; format: functional
# Rattus norvegicus [24] = assay: Antiallergic activity of compound (10mg/Kg, iv) was assessed by the inhibition of passive paw anaphylaxis in rats; NA= No activity; format: functional, organism-based
# Rattus norvegicus [25] = assay: Antiinflammatory activity of compound (25 mg/kg) was assessed by inhibition of carrageenan-induced edema in rats
# Mus musculus [26] = species: Mus musculus; assay: Effective peroral dose for muscle relaxation in mice; 7.7-16.3; format: functional; details: po
# Mus musculus [27] = species: Mus musculus; assay: Effective peroral dose hypothermic activity in mice; 6.3-18.7; format: functional; details: po
SMILES,ED50 (Mus musculus [1]),ED50 (Mus musculus [2]),HR (Rattus norvegicus [3]),inhibition (Rattus norvegicus [4]),BP (Rattus norvegicus [5]),Inhibition (Rattus norvegicus [7]),HR (Rattus norvegicus [8]),BP (Rattus norvegicus [10]),other results
Cn1c(N)c2nc([C@@H]3O[C@H](CO)[C@@H](O)[C@H]3O)nc-2[nH]c1=O,> 100 mg/kg,> 100 mg/kg,inactive,inactive,-9%,–,–,–,inhibition (Rattus norvegicus [6]): inactive
CCn1c(=O)[nH]c2c(ncn2C2O[C@H](CO)[C@@H](O)[C@H]2O)c1=N (some centres not stated),> 100 mg/kg,> 100 mg/kg,–,–,-18%,40%,-27%,–,Inhibition (Rattus norvegicus [9]): 17%
C[C@H]1OC(n2cnc3c(=N)n(C)c(=O)[nH]c32)[C@H](O)[C@@H]1O (some centres not stated),> 100 mg/kg,> 100 mg/kg,inactive,inactive,–,–,–,Not significant,inhibition (Rattus norvegicus [6]): inactive
Cn1c(=O)[nH]c2c(nc(Br)n2C2O[C@H](CO)[C@@H](O)[C@H]2O)c1=N (some centres not stated),> 100 mg/kg,> 100 mg/kg,inactive,–,–,–,–,Not significant,inhibition (Rattus norvegicus [11]): inactive; inhibition (Rattus norvegicus [12]): inactive
COc1nc(N)c2ncn([C@@H]3O[C@H](CO)[C@@H](O)[C@H]3O)c2n1 [BVT.115959],–,–,–,–,-41%,56%,-25%,–,Inhibition (Rattus norvegicus [13]): 25%; ED50 (Mus musculus [14]): 15.3 mg/kg; Inhibition (Rattus norvegicus [9]): 57%; ED50 (Mus musculus [15]): 12.5 mg/kg
Cn1c(=O)[nH]c2c(ncn2C2O[C@H](COP(=O)(O)O)[C@@H](O)[C@H]2O)c1=N (some centres not stated),–,–,–,–,-44%,57%,-48%,–,ED50 (Mus musculus [16]): 19.7 mg/kg; ED50 (Mus musculus [17]): 12.6 mg/kg; Inhibition (Rattus norvegicus [18]): 46%
Cn1c(=O)[nH]c2c(ncn2C2O[C@@H]3COP(=O)(O)O[C@@H]3[C@@H]2O)c1=N (some centres not stated),–,–,–,–,-17%,–,-37%,–,ED50 (Mus musculus [19]): 21.2 mg/kg; ED50 (Mus musculus [20]): 29.5 mg/kg; inhibition (Rattus norvegicus [21]): inactive; inhibition in vivo at 10 mg/kg (Rattus norvegicus [22]): 14%
Cn1c(=O)[nH]c2c(ncn2C2O[C@H](CI)[C@@H](O)[C@H]2O)c1=N (some centres not stated),> 100 mg/kg,> 100 mg/kg,inactive,–,–,14%,–,Not significant,inhibition (Rattus norvegicus [12]): inactive
Nc1nc(=O)[nH]c2c1ncn2[C@@H]1O[C@H](CO)[C@@H](O)[C@H]1O [ISOGUANOSINE],> 100 mg/kg,> 100 mg/kg,–,inactive,–,–,–,–,–
CCCCn1c(=O)[nH]c2c(ncn2C2O[C@H](CO)[C@@H](O)[C@H]2O)c1=N (some centres not stated),> 100 mg/kg,> 100 mg/kg,–,inactive,-7%,–,-16%,–,inhibition in vivo at 10 mg/kg (Rattus norvegicus [22]): 35%
Cn1c(=N)c2ncn3c2n(c1=O)C[C@H]1OC3[C@H](O)[C@@H]1O.I,> 100 mg/kg,> 100 mg/kg,inactive,–,–,–,–,Not significant,inhibition in vivo at 10 mg/kg (Rattus norvegicus [22]): 45%; inhibition in vivo at 50 mg/kg (Rattus norvegicus [23]): 21%
CCCCCCCCn1c(=O)[nH]c2c(ncn2C2O[C@H](CO)[C@@H](O)[C@H]2O)c1=N (some centres not stated),> 100 mg/kg,> 100 mg/kg,inactive,–,–,14%,–,Not significant,inhibition (Rattus norvegicus [12]): inactive
Cn1c(=O)[nH]c2c(ncn2C2O[C@H](CO)[C@@H](O)[C@H]2O)c1=O (some centres not stated),> 100 mg/kg,> 100 mg/kg,inactive,inactive,–,–,–,Not significant,inhibition (Rattus norvegicus [6]): inactive
Cn1c(=O)[nH]c2c(ncn2COCCO)c1=N,> 100 mg/kg,> 100 mg/kg,inactive,–,–,–,–,Not significant,inhibition (Rattus norvegicus [12]): inactive; inhibition (Rattus norvegicus [24]): inactive
Cn1c(=O)[nH]c2c(nc(N)n2C2O[C@H](CO)[C@@H](O)[C@H]2O)c1=N (some centres not stated),> 100 mg/kg,> 100 mg/kg,–,inactive,-10%,–,-20%,–,inhibition (Rattus norvegicus [6]): inactive
Cn1c(=O)[nH]c2c(nc(NN)n2C2O[C@H](CO)[C@@H](O)[C@H]2O)c1=N (some centres not stated),> 100 mg/kg,> 100 mg/kg,–,inactive,-13%,–,-21%,–,inhibition (Rattus norvegicus [6]): inactive
Cn1c(=O)[nH]c2c(ncn2C2O[C@H](CO)[C@@H](O)[C@H]2O)c1=N (some centres not stated),–,–,–,–,-32%,55%,-36%,–,Inhibition (Rattus norvegicus [25]): 62%; ED50 (Mus musculus [26]): 11.2 mg/kg; ED50 (Mus musculus [27]): 10.9 mg/kg
N=c1c2ncn(C3O[C@H](CO)[C@@H](O)[C@H]3O)c2[nH]c(=O)n1-c1ccccc1 (some centres not stated),> 100 mg/kg,> 100 mg/kg,inactive,inactive,–,–,–,Not significant,inhibition in vivo at 10 mg/kg (Rattus norvegicus [22]): 30%
Cn1c(=O)[nH]c2c(ncn2C2O[C@H](CO)[C@@H](O)[C@@H]2O)c1=N (some centres not stated),> 100 mg/kg,> 100 mg/kg,inactive,–,–,–,–,Not significant,inhibition (Rattus norvegicus [12]): inactive; inhibition (Rattus norvegicus [24]): inactive
